US5932410A, “Assay for the detection of proteases” (Commonwealth Scientific and Industrial Research …, priority 1994, dated 1999)
Where a SMILES comes first, the peptide text is derived from it. The star is where a group is joined. Cbz = O=C(OCc1ccccc1)*

Experiments:
Format in all cases: biochemical
Proteinase K = Proteinase K (Parengyodontium album, UniProt P06873); assay: Esterase assay, proteinase K; conditions: Z-AX-OMe substrate; for Esterase rate, Proteinase K: X = P1 residue, rates approximately ± 10%; for % of maximum activity, Proteinase K: percentage of the maximum activity
Chain of Proteinase K (P06873 106-384): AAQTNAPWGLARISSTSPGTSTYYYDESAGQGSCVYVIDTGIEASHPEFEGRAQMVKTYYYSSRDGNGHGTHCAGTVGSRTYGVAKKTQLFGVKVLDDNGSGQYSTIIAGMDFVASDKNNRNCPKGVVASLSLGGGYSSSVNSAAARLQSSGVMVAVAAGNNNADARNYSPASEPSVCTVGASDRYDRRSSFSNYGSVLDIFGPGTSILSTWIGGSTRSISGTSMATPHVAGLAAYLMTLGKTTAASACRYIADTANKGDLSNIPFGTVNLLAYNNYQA
From the text: (§1) Advantage was taken of this activity to develop an "esterase" assay which uses a pH indicator to visualise the hydrogen ion release caused by the action of proteases on peptide-ester substrates. A series of twenty compounds of the form, carbobenzoxy alanyl-X-methyl ester (Z-AX-OMe) were synthesised where "X" is one of the naturally occurring amino acids. These substrates were used in a 96 well microtitre plate assay to screen each mutant enzyme for activity and specificity. The reactions were followed visually or quantified using a standard ELISA plate reader. The esterase assay, using trypsin as a test enzyme and Z-Ala-Arg-OMe as substrate, was more sensitive as than traditional trypsin substrates (three times the rate obtained with benzoyl arginine ethyl aster and twenty times the rate of benzoyl arginine p-nitroanilide) (Whittaker et al., Analytical Biochemistry, 220, 238-243, 1994).
(§2) The present inventors produced a panel of substrates carbobenzoxy alanyl-X-methyl eater (Z-AX-OMe) where X is one of the naturally occurring amino acids. The reactivity of these substrates with a number of serine proteases is set out in Table 1 and FIG. 1.
(§3) Rates are A580 change/min./mg protease. Rates are also shown as a […]

Subtilisin = assay: Esterase assay, subtilisin; conditions: Z-AX-OMe substrate; for Esterase rate, Subtilisin: X = P1 residue, rates approximately ± 10%; for % of maximum activity, Subtilisin: percentage of the maximum activity
From the text: as §1, §2, §3

α-Lytic protease = α-Lytic protease (Lysobacter enzymogenes, UniProt P00778); assay: Esterase assay, α-lytic protease; conditions: Z-AX-OMe substrate; for Esterase rate, α-Lytic protease: X = P1 residue, rates approximately ± 10%; for % activity, α-Lytic protease: normalised to alanine
Chain of α-Lytic protease (P00778 25-397 limits assumed): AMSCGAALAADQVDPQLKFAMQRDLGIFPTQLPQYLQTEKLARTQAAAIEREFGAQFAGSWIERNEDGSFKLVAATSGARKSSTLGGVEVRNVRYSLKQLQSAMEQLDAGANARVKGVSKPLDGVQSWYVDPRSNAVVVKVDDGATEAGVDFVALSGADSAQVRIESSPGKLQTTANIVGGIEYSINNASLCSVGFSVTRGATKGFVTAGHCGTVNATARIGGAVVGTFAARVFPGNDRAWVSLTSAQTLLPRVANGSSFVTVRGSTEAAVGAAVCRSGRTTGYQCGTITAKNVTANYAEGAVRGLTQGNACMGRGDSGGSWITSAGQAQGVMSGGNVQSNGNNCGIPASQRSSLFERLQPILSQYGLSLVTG
From the text: as §1, §2, §3

Elastase = Elastase (Sus scrofa, UniProt P00772); assay: Esterase assay, elastase; conditions: Z-AX-OMe substrate; for Esterase rate, Elastase: X = P1 residue, rates approximately ± 10%; for % activity, Elastase: normalised to alanine
Chain of Elastase (P00772 27-266): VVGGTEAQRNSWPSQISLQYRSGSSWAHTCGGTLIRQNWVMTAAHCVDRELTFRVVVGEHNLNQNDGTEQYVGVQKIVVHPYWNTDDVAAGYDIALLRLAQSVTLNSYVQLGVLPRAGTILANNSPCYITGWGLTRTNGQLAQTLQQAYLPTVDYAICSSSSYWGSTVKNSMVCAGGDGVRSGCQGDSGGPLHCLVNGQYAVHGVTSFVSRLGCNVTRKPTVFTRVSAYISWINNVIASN
From the text: as §1, §2, §3

Trypsin = assay: Esterase assay, trypsin; conditions: Z-AX-OMe substrate; for Esterase rate, Trypsin: X = P1 residue, rates approximately ± 10%; for % of maximum activity, Trypsin: percentage of the maximum activity
From the text: as §1, §2, §3

Thrombin = Thrombin (Homo sapiens, UniProt P00734); assay: Esterase assay, thrombin; conditions: Z-AX-OMe substrate; for Esterase rate, Thrombin: X = P1 residue, rates approximately ± 10%; for % of maximum activity, Thrombin: percentage of the maximum activity
From the text: as §1, §2, §3

Chymotrypsin = Chymotrypsin (Bos taurus, UniProt P00766); assay: Esterase assay, chymotrypsin; conditions: Z-AX-OMe substrate; for Esterase rate, Chymotrypsin: X = P1 residue, rates approximately ± 10%; for % of maximum activity, Chymotrypsin: percentage of the maximum activity
From the text: as §1, §2, §3

| SMILES | Esterase rate, Proteinase K (Proteinase K) | % of maximum activity, Proteinase K (Proteinase K) [%] | Esterase rate, Subtilisin (Subtilisin) | % of maximum activity, Subtilisin (Subtilisin) [%] | Esterase rate, α-Lytic protease (α-Lytic protease) | % activity, α-Lytic protease (α-Lytic protease) [%] | Esterase rate, Elastase (Elastase) | % activity, Elastase (Elastase) [%] | Esterase rate, Trypsin (Trypsin) | % of maximum activity, Trypsin (Trypsin) [%] | Esterase rate, Thrombin (Thrombin) | % of maximum activity, Thrombin (Thrombin) [%] | Esterase rate, Chymotrypsin (Chymotrypsin) | % of maximum activity, Chymotrypsin (Chymotrypsin) [%] |
| --- | --- | --- | --- | --- | --- | --- | --- | --- | --- | --- | --- | --- | --- | --- |
| COC(=O)[C@H](C)NC(=O)[C@H](C)NC(=O)OCc1ccccc1 [Ala] (Cbz-Ala-Ala-OMe) | 775 A580 change/min./mg protease | 100 | 1536 A580 change/min./mg protease | 73.8 | 6.2 A580 change/min./mg protease | 100 | 15.7 A580 change/min./mg protease | 100 | 0 A580 change/min./mg protease | 0 | 0 A580 change/min./mg protease | 0 | trace | – |
| COC(=O)[C@H](CC(N)=O)NC(=O)[C@H](C)NC(=O)OCc1ccccc1 [Asn] (Cbz-Ala-Asn-OMe) | 137 A580 change/min./mg protease | 17.7 | 244 A580 change/min./mg protease | 11.4 | 0 A580 change/min./mg protease | 0 | 0 A580 change/min./mg protease | 0 | 0 A580 change/min./mg protease | 0 | 0 A580 change/min./mg protease | 0 | 0.3 A580 change/min./mg protease | 0.5 |
| COC(=O)[C@H](CC(=O)O)NC(=O)[C@H](C)NC(=O)OCc1ccccc1 [Asp] (Cbz-Ala-Asp-OMe) | 18 A580 change/min./mg protease | 2.3 | trace | – | 0 A580 change/min./mg protease | 0 | 0 A580 change/min./mg protease | 0 | 0 A580 change/min./mg protease | 0 | 0 A580 change/min./mg protease | 0 | 0 A580 change/min./mg protease | 0 |
| COC(=O)[C@H](CS)NC(=O)[C@H](C)NC(=O)OCc1ccccc1 [Cys] (Cbz-Ala-Cys-OMe) | 392 A580 change/min./mg protease | 50.6 | 1251 A580 change/min./mg protease | 58.2 | 8.5 A580 change/min./mg protease | 137.1 | 86.1 A580 change/min./mg protease | 548.4 | 0 A580 change/min./mg protease | 0 | 0 A580 change/min./mg protease | 0 | 0.4 A580 change/min./mg protease | 0.7 |
| COC(=O)[C@H](CCC(N)=O)NC(=O)[C@H](C)NC(=O)OCc1ccccc1 [Gln] (Cbz-Ala-Gln-OMe) | 553 A580 change/min./mg protease | 71.4 | 1308 A580 change/min./mg protease | 60.9 | 0 A580 change/min./mg protease | 0 | 0 A580 change/min./mg protease | 0 | 0 A580 change/min./mg protease | 0 | 0 A580 change/min./mg protease | 0 | 0.5 A580 change/min./mg protease | 0.9 |
| COC(=O)[C@H](CCC(=O)O)NC(=O)[C@H](C)NC(=O)OCc1ccccc1 [Glu] (Cbz-Ala-Glu-OMe) | 97 A580 change/min./mg protease | 12.5 | 83 A580 change/min./mg protease | 3.9 | 0 A580 change/min./mg protease | 0 | 0 A580 change/min./mg protease | 0 | 0 A580 change/min./mg protease | 0 | 0 A580 change/min./mg protease | 0 | 0 A580 change/min./mg protease | 0 |
| COC(=O)CNC(=O)[C@H](C)NC(=O)OCc1ccccc1 [Gly] (Cbz-Ala-Gly-OMe) | 58 A580 change/min./mg protease | 7.5 | 22 A580 change/min./mg protease | 1.0 | 0 A580 change/min./mg protease | 0 | 0 A580 change/min./mg protease | 0 | 0 A580 change/min./mg protease | 0 | 0 A580 change/min./mg protease | 0 | 0 A580 change/min./mg protease | 0 |
| COC(=O)[C@H](Cc1cnc[nH]1)NC(=O)[C@H](C)NC(=O)OCc1ccccc1 [His] (Cbz-Ala-His-OMe) | 203 A580 change/min./mg protease | 26.2 | 249 A580 change/min./mg protease | 11.6 | 0 A580 change/min./mg protease | 0 | 0 A580 change/min./mg protease | 0 | 3.0 A580 change/min./mg protease | 0.8 | trace | – | 1.5 A580 change/min./mg protease | 2.7 |
| CC[C@H](C)[C@H](NC(=O)[C@H](C)NC(=O)OCc1ccccc1)C(=O)OC [Ile] (Cbz-Ala-Ile-OMe) | 5 A580 change/min./mg protease | 0.6 | 16 A580 change/min./mg protease | 0.7 | 0 A580 change/min./mg protease | 0 | 1.7 A580 change/min./mg protease | 11.0 | 0 A580 change/min./mg protease | 0 | 0 A580 change/min./mg protease | 0 | 0 A580 change/min./mg protease | 0 |
| COC(=O)[C@H](CC(C)C)NC(=O)[C@H](C)NC(=O)OCc1ccccc1 [Leu] (Cbz-Ala-Leu-OMe) | 240 A580 change/min./mg protease | 31.0 | 1329 A580 change/min./mg protease | 61.8 | 0 A580 change/min./mg protease | 0 | 3.4 A580 change/min./mg protease | 21.7 | 0 A580 change/min./mg protease | 0 | 0 A580 change/min./mg protease | 0 | 2.4 A580 change/min./mg protease | 4.3 |
| COC(=O)[C@H](CCCCN)NC(=O)[C@H](C)NC(=O)OCc1ccccc1 [Lys] (Cbz-Ala-Lys-OMe) | 61 A580 change/min./mg protease | 7.9 | 153 A580 change/min./mg protease | 7.1 | 0 A580 change/min./mg protease | 0 | 0 A580 change/min./mg protease | 0 | 155.8 A580 change/min./mg protease | 44.0 | 4.3 A580 change/min./mg protease | 49.0 | 1.5 A580 change/min./mg protease | 2.7 |
